Where two headings read alike, the source gives them in different places.
Assays:
[1] = system: RPMI-8226 multiple myeloma cells; test: Proliferation of RPMI-8226 multiple myeloma cells; assay type: cell-based, human; conditions: read-out: IC50 against RPMI-8226 proliferation
Method: Growth inhibition assay was performed to assess the effect of Compound (1) and antiestrogens on growth of RPMI-8226 (multiple myeloma) cells. Cells were seeded in 96-well plates at 2000 cells/well in 200 μL of medium. After 24 hours, test compounds were added to each well and control wells received vehicle only. On Day 3, viable cells were measured with the MTT assay, using an MTT kit.
The effect of Compound (1) and analogs thereof on proliferation of RPMI-8226 multiple myeloma cells was determined by standard methods.

ER-α = molecular target: T1, ER-α (Homo sapiens, UniProt P03372); test: Estrogen receptor binding assay (3H-estradiol displacement), ER-α; conditions: recombinant estrogen receptor, 10 nM 3H-estradiol, 4° C. overnight; read-out: Binding Affinity (IC50) ER-α
T1 sequence (P03372 1-595): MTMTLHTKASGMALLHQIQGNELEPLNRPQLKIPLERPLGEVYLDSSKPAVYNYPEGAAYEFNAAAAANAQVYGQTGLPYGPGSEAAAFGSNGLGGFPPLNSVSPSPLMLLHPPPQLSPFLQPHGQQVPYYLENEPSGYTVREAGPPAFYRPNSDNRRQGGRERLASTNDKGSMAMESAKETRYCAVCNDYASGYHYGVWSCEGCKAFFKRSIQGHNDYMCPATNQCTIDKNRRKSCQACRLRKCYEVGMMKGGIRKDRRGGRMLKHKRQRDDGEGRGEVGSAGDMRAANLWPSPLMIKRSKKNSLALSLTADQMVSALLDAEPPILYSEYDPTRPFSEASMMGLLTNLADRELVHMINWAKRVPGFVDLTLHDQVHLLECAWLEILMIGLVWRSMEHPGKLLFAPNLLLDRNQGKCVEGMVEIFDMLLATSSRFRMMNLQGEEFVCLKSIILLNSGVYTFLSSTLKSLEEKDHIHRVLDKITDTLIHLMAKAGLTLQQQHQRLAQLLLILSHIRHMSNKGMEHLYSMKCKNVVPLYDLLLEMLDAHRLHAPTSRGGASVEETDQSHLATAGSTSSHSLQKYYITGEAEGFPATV

ER-β = ER-β (Homo sapiens, UniProt Q92731); test: Estrogen receptor binding assay (3H-estradiol displacement), ER-β; conditions: recombinant estrogen receptor, 10 nM 3H-estradiol, 4° C. overnight; read-out: Binding Affinity (IC50) ER-β
Chain of ER-β (Q92731 whole entry, species assumed): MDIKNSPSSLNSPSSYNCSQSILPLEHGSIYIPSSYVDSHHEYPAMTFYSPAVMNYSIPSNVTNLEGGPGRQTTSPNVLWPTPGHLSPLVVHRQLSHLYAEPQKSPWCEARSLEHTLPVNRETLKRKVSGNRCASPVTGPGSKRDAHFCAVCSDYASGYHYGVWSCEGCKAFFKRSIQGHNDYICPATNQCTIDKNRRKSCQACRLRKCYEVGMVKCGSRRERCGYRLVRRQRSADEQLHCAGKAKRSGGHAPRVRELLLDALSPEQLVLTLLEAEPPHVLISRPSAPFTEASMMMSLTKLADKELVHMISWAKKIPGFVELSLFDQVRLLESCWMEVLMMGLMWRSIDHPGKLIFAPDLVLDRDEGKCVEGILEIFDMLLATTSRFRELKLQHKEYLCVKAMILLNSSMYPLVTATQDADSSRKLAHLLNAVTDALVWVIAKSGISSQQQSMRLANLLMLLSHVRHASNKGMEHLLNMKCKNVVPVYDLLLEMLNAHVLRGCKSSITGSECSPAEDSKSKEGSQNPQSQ

[2] = Activity test of salts of Compound (1) (test not specified)

C[C@@H]1Cc2cc(O)ccc2C2CC[C@]3(C)/C(=C/COCCN4CCCC4)CCC3C21 (stereo partly drawn)
IC50 ([1]; Homo sapiens): 6.9 µM

C[C@@H]1Cc2cc(O)ccc2[C@H]2CC[C@]3(C)/C(=C/COCCN4CCCCC4)CC[C@H]3[C@H]12
IC50 ([1]; Homo sapiens): 15 µM

C[C@@H]1Cc2cc(O)ccc2[C@H]2CC[C@]3(C)/C(=C/COC[C@@H](C)N(C)C)CC[C@H]3[C@H]12
IC50 ([1]; Homo sapiens): 9.2 µM

C[C@@H]1Cc2cc(O)ccc2[C@H]2CC[C@]3(C)/C(=C/COCCNC4CC4)CC[C@H]3[C@H]12
IC50 ([1]; Homo sapiens): 10.2 µM

C[C@@H]1Cc2cc(O)ccc2[C@H]2CC[C@]3(C)/C(=C/COCCN(C)C)CC[C@H]3[C@H]12 [Compound (1)]
IC50 (ER-α): 0.00156 ± 0.00042 µM
IC50 (ER-β): 0.0867 ± 0.0133 µM
IC50 ([1]; Homo sapiens): 0.8 µM

C[C@]12CC[C@@H]3c4ccc(O)cc4C[C@@H](CCCCCCCCC[S+]([O-])CCCC(F)(F)C(F)(F)F)[C@H]3[C@@H]1CC[C@@H]2O (stereo partly drawn) [ICI-182780, reference compound]
IC50 ([1]; Homo sapiens): > 20 µM

CC/C(=C(\c1ccc(O)cc1)c1ccc(OCCN(C)C)cc1)c1ccccc1 [OH-Tamoxifen, reference compound]
IC50 [1]: > 20 µM

O=C(c1ccc(OCCN2CCCCC2)cc1)c1c(-c2ccc(O)cc2)sc2cc(O)ccc12 [Raloxifene, reference compound]
IC50 ([1]; Homo sapiens): > 20 µM

CN(C)CCOCC=C1CCC2C3CCc4cc(O)ccc4C3CCC12C.Cl (stereo not drawn) [chloride salt]
Activity of salt (data not provided) [2]: found to have activity

CN(C)CCOCC=C1CCC2C3CCc4cc(O)ccc4C3CCC12C.O=C(O)C=CC(=O)O (stereo not drawn) [fumerate salt]
Activity of salt (data not provided) [2]: found to have activity

From patent US8268807B2, “Compositions and method for the treatment of multiple myeloma” (SRI International, priority 2010, dated 2012)
